According to patent US20260042731A1, “(2,4-DICHLOROPHENOXY)ACETIC ACID ANALOGS” (CORTEVA AGRISCIENCE LLC, priority 2022, published 2026):
Like-named read-outs stand apart in the source and are kept apart here.

Legend:
[1] = test system: Amaranthus rudis (AMATA), tall water hemp; test: Postemergence herbicide evaluation, growth of Amaranthus rudis (AMATA); format: in vivo; conditions: Amaranthus tuberculatus, post-emergence, read-out: Ave. AMATA, percent reduction in plant size relative to the untreated control; for pest or weed control at 280 g/ha: 280 g ae/ha; for pest or weed control at 560 g/ha: 560 g ae/ha
[2] = test system: Ambrosia artemisiifolia (AMBEL), common ragweed; test: Postemergence herbicide evaluation, growth of Ambrosia artemisiifolia (AMBEL); format: in vivo; conditions: Ambrosia artemisiifolia, post-emergence, read-out: AVE. AMBEL, percent reduction in plant size relative to the untreated control; for pest or weed control at 280 g/ha: 280 g ae/ha; for pest or weed control at 560 g/ha: 560 g ae/ha
[3] = test system: Abutilon theophrasti (ABUTH), velvetleaf; test: Postemergence herbicide evaluation, growth of Abutilon theophrasti (ABUTH); format: in vivo; conditions: Abutilon theophrasti, post-emergence, read-out: AVE. ABUTH, percent reduction in plant size relative to the untreated control; for pest or weed control at 280 g/ha: 280 g ae/ha; for pest or weed control at 560 g/ha: 560 g ae/ha
[4] = test system: Chenopodium album (CHEAL), common lambsquarters; test: Postemergence herbicide evaluation, growth of Chenopodium album (CHEAL); format: in vivo; conditions: Chenopodium album, post-emergence, read-out: Ave. CHEAL, percent reduction in plant size relative to the untreated control; for pest or weed control at 280 g/ha: 280 g ae/ha; for pest or weed control at 560 g/ha: 560 g ae/ha
[5] = test system: glyphosate resistant Conyza canadensis (L.) (ERICA), horseweed; test: Postemergence herbicide evaluation, growth of Conyza canadensis (ERICA); format: in vivo; conditions: Erigeron canadensis, post-emergence, read-out: Ave. ERICA, percent reduction in plant size relative to the untreated control; for pest or weed control at 280 g/ha: 280 g ae/ha; for pest or weed control at 560 g/ha: 560 g ae/ha
[6] = Volatility of compounds measured by thermogravimetric analysis (TGA); format: physicochemical
[7] = test system: weeds ABUTH, AMATA, AMBEL, CHEAL, ERICA; test: Postemergence herbicide evaluation, overall average % weed control (ABUTH, AMATA, AMBEL, CHEAL, ERICA); format: in vivo; conditions: post-emergence, read-out: Overall Ave % Weed Control; for pest or weed control at 280 g/ha: 280 g ae/ha; for pest or weed control at 560 g/ha: 560 g ae/ha

O=C(COc1ccc(Cl)cc1Cl)O/N=C/c1ccccc1 [Compound A2, (E)-benzaldehyde O-(2-(2,4-dichlorophenoxy)acetyl) oxime]
pest or weed control at 280 g/ha ([1]; 168 h, 7 DAA): 68% | pest or weed control at 560 g/ha ([1]; 168 h, 7 DAA): 75% | pest or weed control at 280 g/ha ([1]; 336 h, 14 DAA): 70% | pest or weed control at 560 g/ha ([1]; 336 h, 14 DAA): 88% | pest or weed control at 280 g/ha ([1]; 504 h, 21 DAA): 73% | pest or weed control at 560 g/ha ([1]; 504 h, 21 DAA): 87% | pest or weed control at 280 g/ha ([2]; 168 h, 7 DAA): 65% | pest or weed control at 560 g/ha ([2]; 168 h, 7 DAA): 73% | pest or weed control at 280 g/ha ([2]; 336 h, 14 DAA): 92% | pest or weed control at 560 g/ha ([2]; 336 h, 14 DAA): 96% | pest or weed control at 280 g/ha ([2]; 504 h, 21 DAA): 91% | pest or weed control at 560 g/ha ([2]; 504 h, 21 DAA): 100% | pest or weed control at 280 g/ha ([3]; 168 h, 7 DAA): 85% | pest or weed control at 560 g/ha ([3]; 168 h, 7 DAA): 85% | pest or weed control at 280 g/ha ([3]; 336 h, 14 DAA): 94% | pest or weed control at 560 g/ha ([3]; 336 h, 14 DAA): 96% | pest or weed control at 280 g/ha ([3]; 504 h, 21 DAA): 98% | pest or weed control at 560 g/ha ([3]; 504 h, 21 DAA): 96% | pest or weed control at 280 g/ha ([4]; 168 h, 7 DAA): 70% | pest or weed control at 560 g/ha ([4]; 168 h, 7 DAA): 73% | pest or weed control at 280 g/ha ([4]; 336 h, 14 DAA): 70% | pest or weed control at 560 g/ha ([4]; 336 h, 14 DAA): 85% | pest or weed control at 280 g/ha ([4]; 504 h, 21 DAA): 73% | pest or weed control at 560 g/ha ([4]; 504 h, 21 DAA): 87% | pest or weed control at 280 g/ha ([5]; 168 h, 7 DAA): 68% | pest or weed control at 560 g/ha ([5]; 168 h, 7 DAA): 73% | pest or weed control at 280 g/ha ([5]; 336 h, 14 DAA): 93% | pest or weed control at 560 g/ha ([5]; 336 h, 14 DAA): 85% | pest or weed control at 280 g/ha ([5]; 504 h, 21 DAA): 90% | pest or weed control at 560 g/ha ([5]; 504 h, 21 DAA): 98% | TGA Data (rate of weight loss, volatility) [6]: 0.8 µg/min | pest or weed control at 280 g/ha ([7]; 168 h, 7 DAA): 71% | pest or weed control at 560 g/ha ([7]; 168 h, 7 DAA): 76% | pest or weed control at 280 g/ha ([7]; 336 h, 14 DAA): 84% | pest or weed control at 560 g/ha ([7]; 336 h, 14 DAA): 90% | pest or weed control at 280 g/ha ([7]; 504 h, 21 DAA): 87% | pest or weed control at 560 g/ha ([7]; 504 h, 21 DAA): 93%
